This passage reports IC50 results from US9732119B2, “Immunomodulators” (BRISTOL-MYERS SQUIBB COMPANY, priority 2014, dated 2017).

SMILES strings stand for the structures. Positions of bridges follow the written chain, without caps; N, C: chain ends. Non-standard residues stand in square brackets, D forms with d. Residues, ends and D or L forms follow the SMILES beside them. Trp(1-CH2COOH) = N[C@@H](Cc1cn(CC(=O)O)c2ccccc12)C(=O)O; Phe(4-Cl) = N[C@@H](Cc1ccc(Cl)cc1)C(=O)O; Hyp = O=C(O)[C@@H]1C[C@@H](O)CN1; Aad = N[C@@H](CCCC(=O)O)C(=O)O; NMeNle = CCCC[C@H](NC)C(=O)O; Pip = O=C(O)[C@@H]1CCCCN1; NMeA = CN[C@@H](C)C(=O)O; Orn = NCCC[C@H](N)C(=O)O; Dab = NCC[C@H](N)C(=O)O; Dap = NC[C@H](N)C(=O)O; Ava = NCCCCC(=O)O

The target of this assay is T1, PD-1-Ig binding to PD-L1-TVMV-His (PD-L1-His) (Homo sapiens, UniProt Q9NZQ7).
T1 construct: hPDL1(19-239)-TVMV-His; made in house; host or cells: HEK293T cells
T1 sequence (Q9NZQ7 with tags, fused parts or gaps): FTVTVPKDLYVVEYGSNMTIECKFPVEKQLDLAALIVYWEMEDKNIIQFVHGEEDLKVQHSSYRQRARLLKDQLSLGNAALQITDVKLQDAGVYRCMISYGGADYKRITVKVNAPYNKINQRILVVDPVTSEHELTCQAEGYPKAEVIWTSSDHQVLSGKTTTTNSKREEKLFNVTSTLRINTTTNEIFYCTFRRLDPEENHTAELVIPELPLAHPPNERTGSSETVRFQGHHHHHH
Description: PD-1/PD-L1 Homogenous Time-Resolved Fluorescence (HTRF) binding assay. The settings on record: PD-1-Ig (20 nM) / PD-L1-His (10 nM). Summed up: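 HTRF competition: compound pre-incubated 15 min with PD-L1-His (10 nM final), then PD-1-Ig (20 nM final) added for 15 min in dPBS, 0.1% BSA, 0.05% Tween-20. Detection with Eu-cryptate anti-Ig (1 nM) and APC anti-His (20 nM) antibodies.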
(In general: Time-resolved FRET reads energy transfer from a long-lived donor to a nearby acceptor.)

For `CCCC[C@H]1C(=O)N(C)[C@@H](CCCC)C(=O)NC(CC(C)C)C(=O)N[C@H](C(=O)NCC(N)=O)CNCC(=O)N[C@@H](Cc2ccc(O)cc2)C(=O)N(C)[C@@H](C)C(=O)N[C@@H](CC(N)=O)C(=O)N2CCC[C@H]2C(=O)N[C@@H](CN)C(=O)N[C@@H](CC(C)C)C(=O)N2C[C@H](O)C[C@H]2C(=O)N[C@@H](Cc2c[nH]c3ccccc23)C(=O)N[C@@H](CCN)C(=O)N[C@@H](Cc2cn(CC(=O)O)c3ccccc23)C(=O)N1C` (some centres unmarked) [Example 1030], under “range classes”, the 50% inhibitory concentration (IC50) was in the range of 1 to 9.9 nM. Same read-out and setting: for `CCCC[C@H]1C(=O)N(C)[C@@H](CCCC)C(=O)N[C@@H](CC(C)C)C(=O)NCCC[C@H](N)C(=O)N[C@@H](Cc2ccc(O)cc2)C(=O)N2CCCC[C@H]2C(=O)N[C@@H](CC(N)=O)C(=O)N2CCC[C@H]2C(=O)N[C@@H](CN)C(=O)N[C@@H](CC(C)C)C(=O)N2C[C@H](O)C[C@H]2C(=O)N[C@@H](Cc2c[nH]c3ccccc23)C(=O)N[C@@H](CCN)C(=O)N[C@@H](Cc2cn(CC(=O)O)c3ccccc23)C(=O)N1C` [Example 10517] (H-[Orn]Y[Pip]NP[Dap]L[Hyp]W[Dab][Trp(1-CH2COOH)][NMeNle][NMeNle]L; lactam 1-C) the value was 10 to 99 nM; for `CCCC[C@H]1C(=O)N(C)[C@@H](CCCC)C(=O)N[C@@H](CC(C)C)C(=O)NCCCCC(=O)N[C@@H](Cc2ccc(OC)cc2)C(=O)N2CCCC[C@H]2C(=O)N[C@@H](CC(N)=O)C(=O)N2CCC[C@H]2C(=O)N[C@@H](CN)C(=O)N[C@@H](CC(C)C)C(=O)N2C[C@H](O)C[C@H]2C(=O)N[C@@H](Cc2c[nH]c3ccccc23)C(=O)N[C@@H](CCN)C(=O)N[C@@H](Cc2cn(CC(=O)O)c3ccccc23)C(=O)N1C` [Example 10535] (cyclo([Ava]Y(Me)[Pip]NP[Dap]L[Hyp]W[Dab][Trp(1-CH2COOH)][NMeNle][NMeNle]L)), 1 to 9.9 nM.

On to `CCCC[C@H]1C(=O)N(C)[C@@H](CCCC)C(=O)N[C@@H](CC(C)C)C(=O)NCCC[C@H](N)C(=O)N[C@@H](Cc2ccc(Cl)cc2)C(=O)N2CCCC[C@H]2C(=O)N[C@@H](CC(N)=O)C(=O)N2CCC[C@H]2C(=O)N[C@@H](CN)C(=O)N[C@@H](CCC(=O)O)C(=O)N2C[C@H](O)C[C@H]2C(=O)N[C@@H](Cc2c[nH]c3ccccc23)C(=O)N[C@@H](CCN)C(=O)N[C@@H](Cc2cn(CC(=O)O)c3ccccc23)C(=O)N1C` [Example 10546] (H-[Orn][Phe(4-Cl)][Pip]NP[Dap]E[Hyp]W[Dab][Trp(1-CH2COOH)][NMeNle][NMeNle]L; lactam 1-C), for which the IC50 (range classes) was in the range of 10 to 99 nM. The same measure, in the same setting: the result for `CCCC[C@H]1C(=O)N(C)[C@@H](CCCC)C(=O)N[C@@H](CC(C)C)C(=O)N[C@H](C(=O)NCC(N)=O)CNCC(=O)N[C@@H](Cc2ccc(OC)cc2)C(=O)N2CCCC[C@H]2C(=O)N[C@@H](CC(N)=O)C(=O)N2CCC[C@H]2C(=O)N[C@@H](CN)C(=O)N[C@@H](CC(C)C)C(=O)N2C[C@H](O)C[C@H]2C(=O)N[C@@H](Cc2c[nH]c3ccccc23)C(=O)N[C@@H](CCN)C(=O)N[C@@H](Cc2cn(CC(=O)O)c3ccccc23)C(=O)N1C` [Example 1040] reads 1 to 9.9 nM. `CCCC[C@H]1C(=O)N(C)[C@@H](CCCC)C(=O)N[C@@H](CC(C)C)C(=O)NCCC[C@H](N)C(=O)N[C@@H](Cc2ccc(Cl)cc2)C(=O)N2CCCC[C@H]2C(=O)N[C@@H](CC(N)=O)C(=O)N2CCC[C@H]2C(=O)N[C@@H](CN)C(=O)N[C@@H](CC(C)C)C(=O)N2C[C@H](O)C[C@H]2C(=O)N[C@@H](Cc2c[nH]c3ccccc23)C(=O)N[C@@H](CCN)C(=O)N[C@@H](Cc2cn(CC(=O)O)c3ccccc23)C(=O)N1C` [Example 10545] (H-[Orn][Phe(4-Cl)][Pip]NP[Dap]L[Hyp]W[Dab][Trp(1-CH2COOH)][NMeNle][NMeNle]L; lactam 1-C) yielded an IC50 (numeric values) of 8 nM. Turning to `CCCC[C@H]1C(=O)N(C)[C@@H](CCCC)C(=O)N[C@@H](CCC(=O)O)C(=O)N[C@H](C(N)=O)CNCC(=O)N[C@@H](Cc2ccc(F)cc2)C(=O)N2CCCC[C@H]2C(=O)N[C@@H](CC(N)=O)C(=O)N2CCC[C@H]2C(=O)N[C@@H](CCC(N)=O)C(=O)N[C@@H](CCC(N)=O)C(=O)N2C[C@H](O)C[C@H]2C(=O)N[C@@H](Cc2c[nH]c3ccccc23)C(=O)N[C@@H](CC(N)=O)C(=O)N[C@@H](Cc2cn(CC(=O)O)c3ccccc23)C(=O)N1C` [Example 9048], where the note is “range classes”, the IC50 lay in the range of 1 to 9.9 nM. Same read-out and setting: the result for `CCCC[C@H]1C(=O)N(C)[C@@H](CCCC)C(=O)N[C@@H](CCC(=O)O)C(=O)N[C@H](C(N)=O)CNCC(=O)N[C@@H](Cc2ccc(F)cc2)C(=O)N2CCCC[C@H]2C(=O)N[C@@H](CC(N)=O)C(=O)N2CCC[C@H]2C(=O)N[C@@H](CCC(N)=O)C(=O)N[C@@H](CCC(=O)O)C(=O)N2C[C@H](O)C[C@H]2C(=O)N[C@@H](Cc2c[nH]c3ccccc23)C(=O)N[C@@H](CC(N)=O)C(=O)N[C@@H](Cc2cn(CC(=O)O)c3ccccc23)C(=O)N1C` [Example 9047] reads 1 to 9.9 nM. For the compound `CCCC[C@H]1C(=O)N(C)[C@@H](CCCC)C(=O)N[C@@H](CCC(=O)O)C(=O)N[C@H](C(N)=O)CNCC(=O)N[C@@H](Cc2ccc(F)cc2)C(=O)N2CCCC[C@H]2C(=O)N[C@@H](CC(N)=O)C(=O)N2CCC[C@H]2C(=O)N[C@@H](CCC(N)=O)C(=O)N[C@@H](CC(C)C)C(=O)N2C[C@H](O)C[C@H]2C(=O)N[C@@H](Cc2c[nH]c3ccccc23)C(=O)N[C@@H](CC(N)=O)C(=O)N[C@@H](Cc2cn(CC(=O)O)c3ccccc23)C(=O)N1C` [Example 9046], for the setting “range classes”, the concentration for half-maximal inhibition (IC50) was 1 to 9.9 nM. As to `CCCC[C@H]1C(=O)N(C)[C@@H](CCCC)C(=O)N[C@@H](CC(C)C)C(=O)N[C@H](C(=O)NCC(N)=O)CCNCC(=O)N[C@@H](Cc2ccc(O)cc2)C(=O)N(C)[C@@H](C)C(=O)N[C@@H](CC(N)=O)C(=O)N2CCC[C@H]2C(=O)N[C@@H](Cc2cnc[nH]2)C(=O)N[C@@H](CCC(N)=O)C(=O)N2C[C@H](O)C[C@H]2C(=O)N[C@@H](Cc2c[nH]c3ccccc23)C(=O)NCC(=O)N[C@@H](Cc2c[nH]c3ccccc23)C(=O)N1C` [Example 10018], the IC50 (range classes) lay within 10 to 99 nM.

As for `CCCC[C@H]1C(=O)N(C)[C@@H](CCCC)C(=O)N[C@@H](CC(C)C)C(=O)N[C@H](C(=O)NCC(N)=O)CNCC(=O)N[C@@H](Cc2ccc(F)cc2)C(=O)N(C)[C@@H](C)C(=O)N[C@@H](CC(=O)O)C(=O)N2CCC[C@H]2C(=O)N[C@@H](CCC(N)=O)C(=O)N[C@@H](CCC(N)=O)C(=O)N2C[C@H](O)C[C@H]2C(=O)N[C@@H](Cc2c[nH]c3ccccc23)C(=O)N[C@@H](CC(N)=O)C(=O)N[C@@H](Cc2cn(CC(=O)O)c3ccccc23)C(=O)N1C` [Example 9017], the IC50 (range classes) fell in the range of 10 to 99 nM. On the same count and under the same terms, the result for `CCCC[C@H]1C(=O)N(C)[C@@H](CCCC)C(=O)N[C@@H](CO)C(=O)N[C@H](C(=O)NCC(N)=O)CNCC(=O)N[C@@H](Cc2ccc(O)cc2)C(=O)N(C)[C@@H](C)C(=O)N[C@@H](CC(N)=O)C(=O)N2CCC[C@H]2C(=O)N[C@@H](Cc2cnc[nH]2)C(=O)N[C@@H](CCC(N)=O)C(=O)N2C[C@H](O)C[C@H]2C(=O)N[C@@H](Cc2c[nH]c3ccccc23)C(=O)N[C@@H](CO)C(=O)N[C@@H](Cc2c[nH]c3ccccc23)C(=O)N1C` [Example 10024] reads 10 to 99 nM.

Under “numeric values”, `CCCC[C@H]1C(=O)N(C)[C@@H](CCCC)C(=O)N[C@@H](CC(C)C)C(=O)NCCCCC(=O)N[C@@H](Cc2ccc(O)cc2)C(=O)N2CCCC[C@H]2C(=O)N[C@@H](CC(N)=O)C(=O)N2CCC[C@H]2C(=O)N[C@@H](CN)C(=O)N[C@@H](CCC(=O)O)C(=O)N2C[C@H](O)C[C@H]2C(=O)N[C@@H](Cc2c[nH]c3ccccc23)C(=O)N[C@@H](CCN)C(=O)N[C@@H](Cc2cn(CC(=O)O)c3ccccc23)C(=O)N1C` [Example 10513] (cyclo([Ava]Y[Pip]NP[Dap]E[Hyp]W[Dab][Trp(1-CH2COOH)][NMeNle][NMeNle]L)) registered an IC50 of 354 nM.

Where the note is “range classes”, `CCCC[C@H]1C(=O)N(C)[C@@H](CCCC)C(=O)N[C@@H](CCC(=O)O)C(=O)N[C@H](C(N)=O)CCCC(=O)N[C@@H](Cc2ccc(O)cc2)C(=O)N2CCCC[C@H]2C(=O)N[C@@H](CC(N)=O)C(=O)N2CCC[C@H]2C(=O)N[C@@H](CN)C(=O)N[C@@H](CC(C)C)C(=O)N2C[C@H](O)C[C@H]2C(=O)N[C@@H](Cc2c[nH]c3ccccc23)C(=O)N[C@@H](CCN)C(=O)N[C@@H](Cc2cn(CC(=O)O)c3ccccc23)C(=O)N1C` [Example 10561] (Y[Pip]NP[Dap]L[Hyp]W[Dab][Trp(1-CH2COOH)][NMeNle][NMeNle]E[Aad]-NH2; lactam N-14) showed an IC50 of 1 to 9.9 nM. Still for that read-out and setting: the result for `CCCC[C@H]1C(=O)N(C)[C@@H](CCCC)C(=O)N[C@@H](CC(C)C)C(=O)NCCCCC(=O)N[C@@H](Cc2ccc(O)cc2)C(=O)N(C)[C@@H](C)C(=O)N[C@@H](CC(N)=O)C(=O)N2CCC[C@H]2C(=O)N[C@@H](CN)C(=O)N[C@@H](CC(C)C)C(=O)N2C[C@H](O)C[C@H]2C(=O)N[C@@H](Cc2c[nH]c3ccccc23)C(=O)N[C@@H](CCN)C(=O)N[C@@H](Cc2c[nH]c3ccccc23)C(=O)N1C` [Example 10505] (cyclo([Ava]Y[NMeA]NP[Dap]L[Hyp]W[Dab]W[NMeNle][NMeNle]L)) reads 1 to 9.9 nM. The same measure, in the same setting: the result for `CCCC[C@H]1C(=O)N(C)[C@@H](CCCC)C(=O)N[C@@H](CC(C)C)C(=O)N2CCC[C@@H]2C(=O)NCC(=O)N[C@@H](Cc2ccc(O)cc2)C(=O)N(C)[C@@H](C)C(=O)N[C@@H](CC(N)=O)C(=O)N2CCC[C@H]2C(=O)N[C@@H](CN)C(=O)N[C@@H](CC(C)C)C(=O)N2C[C@H](O)C[C@H]2C(=O)N[C@@H](Cc2c[nH]c3ccccc23)C(=O)N[C@@H](CCN)C(=O)N[C@@H](Cc2c[nH]c3ccccc23)C(=O)N1C` [Example 5008] (cyclo([Dab]W[NMeNle][NMeNle]L[dP]GY[NMeA]NP[Dap]L[Hyp]W)) reads 1 to 9.9 nM. Still for that read-out and setting: for `CCCC[C@H]1C(=O)N(C)[C@@H](CCCC)C(=O)NC(CC(C)C)C(=O)N[C@H](C(N)=O)CNCC(=O)N[C@@H](Cc2ccc(O)cc2)C(=O)N(C)[C@@H](C)C(=O)N[C@@H](CC(N)=O)C(=O)N2CCC[C@H]2C(=O)N[C@@H](CN)C(=O)N[C@@H](CC(C)C)C(=O)N2C[C@H](O)C[C@H]2C(=O)N[C@@H](Cc2c[nH]c3ccccc23)C(=O)N[C@@H](CCCCN)C(=O)N[C@@H](Cc2cn(CC(=O)O)c3ccccc23)C(=O)N1C` (some centres unmarked) [Example 1033] the value was 10 to 99 nM.

As a reminder, the IC50 is the concentration at which inhibition is half-maximal.
